From paper PMC11601558, “SLC6A19 inhibition facilitates urinary neutral amino acid excretion and lowers plasma phenylalanine” (JCI Insight, 2024)

System: Pah^enu2 mice
Experiment: Plasma Phe in Pah^enu2 mice after JN-170
Type: in vivo, mouse
Protocol: Male homozygous BTBR-Pah<enu2>/J (Pah^enu2) aged 10–13 weeks were purchased from Jackson Laboratory (no. 002232). Immediately before dosing, each animal’s bladder was manually emptied and a plasma sample was drawn. Animals were dosed by oral gavage with vehicle (10% DMSO, 20% 2-hydroxypropyl-β-cyclodextrin [Sigma-Aldrich]) followed by a 1-week washout prior to dosing with JN-170 at doses ranging from 50 to 250 mg/kg. Following dosing with vehicle or JN-170, animals were individually placed in metabolic cages to collect urine samples. After collection of each urine sample, cages were rinsed with ultra-pure water to recover residual analytes. Blood samples were collected predose as well as 1, 3, 8, 12, and 24 hours after dosing with vehicle or JN-170 into tubes with EDTA as a […], and plasma was separated by centrifuging samples at 2,200g for 5 minutes at 4°C. Throughout the study, mice had access to food and water ad libitum. Plasma and urine samples were stored at –80°C until processing.Ten-week-old male WT C57Bl/6J animals (Si Bei Fu Laboratory Animal Technology Co. Ltd.) were dosed either with vehicle or 50–250 mg/kg JN-170 by oral gavage and blood and urine samples were collected as described. All animals had unrestricted access to food and water during the study; C57Bl/6J were kept on rodent maintenance diet from Beijing Keao Xieli, Pah^enu2 mice were kept on Teklad diet no. T.2018.
Plasma sample analyses were carried out by liquid chromatography tandem mass spectrometry (LC-MS/MS). Plasma samples were mixed 1:1 with carbamazepine or ^13C6-Phe as internal standards for JN-170 and Phe, respectively. Plasma proteins were precipitated by adding 4 volumes of acetonitrile (ACN) and 0.1% formic acid (FA) followed by centrifugation for 5 minutes at 2,100g. Supernatants were diluted 1:1 in ACN and 0.1% FA. For JN-170, a Waters HSS T3 reversed phase column was used for separation using a binary gradient of 0.1% FA in water (mobile phase A) to 0.1% in ACN (mobile phase B). At a flow rate of 0.8 mL/min, the mobile phase gradient increased from an initial 25% phase B to 95% phase B over 30 seconds. After, 1.5 minutes, the gradient was returned to 25% mobile phase B. For detection of Phe, an Acquity UPLC ethylene bridged hybrid (BEH) amide column was used, with a binary gradient of 10 mM ammonium acetate in 95:5:1 H2O:ACN:FA (mobile phase A) to 10 mM ammonium acetate in 95:5:1 ACN:H2O:FA (mobile phase B). At a flow rate of 0.5 mL/min, the mobile phase gradient changed from an initial 100% phase B to 50% phase B over 2.1 minutes. It was returned to 100% phase B after 4 minutes. Analytes were detected using a Sciex API-5500 in multiple reaction monitoring mode using an electrospray ionization source in the positive ion mode with the following ion transitions: m/z 435.2/84.1 (JN-170), 237.1/194.1 (carbamazepine), 166.1/120.1 (Phe), 172.2/126.2 for (^13C6-Phe). Analyte concentrations were calculated with a 1/×^2 linear regression over a concentration range of 1 or 2 to 5,000 ng/mL for JN-170 and 0.05–100 ng/mL for Phe.
IC50 values for transport inhibition in cells overexpressing SLC6A19 and TMEM27 were calculated using a 4-parameter logistic regression in Collaborative Drug Discovery (CDD). Reported IC50 values are geometric means of 4–6 independent experiments. For postmortem intestinal transport assays, single outliers of quadruplicate replicates were excluded from the calculation if a signal value’s distance to the mean exceeded 35% of the signal average. The IC50 values of individual experiments were calculated with a 3- or 4-parameter logistic regression using GraphPad Prism 9. The reported IC50 value represents the geometric mean of n = 5 experiments from 3 individual donors. Statistical comparison of urinary Phe excretion in Pah^enu2 mice treated with vehicle or JN-170 was conducted using 1-way analysis of variance (ANOVA) with Tukey’s post hoc comparison. […]

N#Cc1ccc(-c2noc([C@]3(C(F)(F)F)CCN(C(=O)NCCC4(N)CC4)C3)n2)cc1 [JN-170]
plasma Phe, mean ± SD (50 mg/kg, 3 hours): 984 ± 135 µM | plasma Phe lower than predose baseline (50 mg/kg, 3 hours after dosing): 45% | plasma Phe decrease from baseline (50 mg/kg, 12 hours): 34% | plasma Phe, mean ± SD (50 mg/kg, 12 hours): 1,119 ± 124 μM | plasma Phe, mean ± SD (250 mg/kg, 3 hours): 764 ± 43 µM | reduction in plasma Phe vs predose (250 mg/kg, 3 hours): 54% | plasma Phe, mean ± SD (250 mg/kg, 12 hours): 648 ± 106 µM | reduction in plasma Phe vs predose (250 mg/kg, 12 hours): 61% | lowering of plasma Phe (plasma exposures with target coverage above the IC75): > 40%
